We go through 10 compounds from patent US6492380B1, “Method of inhibiting neurotrophin-receptor binding” (Queen's University at Kingston, priority 1999, dated 2002).

Series [1] deals with T1, PC12 cells expressing TrkA and p75^NTR.
T1 construct: host or cells: PC12 (rat pheochromocytoma)
Briefly: 125I-NGF receptor binding inhibition, PC12 cells. The arrangement: species or system rat. To be noted: compound 50 μM; 125I-NGF 1 nM; 2 h at 4° C.; value is mean of the three replicates. The procedure: (§1) The radio-iodination and receptor binding of NGF (Sutter et al., 1979) was performed with modifications (Ross et al., 1997) as follows: Evaluation of the ability of NCP compounds to inhibit TrkA and p75^NTR binding was determined by the binding of ^125I-NGF to PC12 cells (rat pheochromocytoma cells expressing TrkA and p75^NTR obtained from ATCC) and PC12^nnr5 (rat pheocliromocytoma cells expressing p75^NTR only; obtained from Dr. L. Greene, Columbia University, NY). The p75^NTR is in a low affinity state and a high affinity state, respectively, in these cell types (Ross et al., 1998). PC12 and PC12^nnr5 cells were grown in RPMI (Sigma) with 10% heat inactivated donor horse serum and 5% fetal calf serum. Cells were harvested by replacing the medium with calcium, magnesium-free balanced salt solution (Gey's solution) and incubating at 37° C. for 15 minutes. Cells were pelleted by centrifugation and suspended in HKR buffer (10 mM Hepes [pH 7.35] containing 125 mM NaCl, 4.8 mM KCl, 1.3 mM CaCl2, 1.2 mM MgSO4, 1.2 mM KH2PO4, 1 g/L glucose and 1 g/L BSA) at a cell concentration of 2×10^6/mL and kept at 4° C. Triplicate tubes were set up for total binding, non-specific binding and binding in the presence of candidate competitor molecule (i.e., a tube for each data point). Each tube contained ^125I-NGF (at 1 nM), 400,000 cells (for a final cell concentration of 10^6/mL) and NGF (50 nM, to define non-specific binding), as required. The tubes were incubated for 2 h at 4° C. and specific binding evaluated by measuring specifically bound DPM (Ross et al., 1997). Data were analysed and the results expressed as receptor binding observed in the presence of competitor as a percentage of receptor binding in the absence of a competitor.

Series [2] has as its system T2, PC12^nnr5 cells expressing p75^NTR only.
T2 construct: PC12^nnr5 (rat pheocliromocytoma cells expressing p75^NTR only; obtained from Dr. L. Greene, Columbia University, NY); host or cells: PC12nnr5 (rat pheochromocytoma subline)
Briefly: 125I-NGF receptor binding inhibition, PC12^nnr5 cells. On the set-up: species or system rat. Particulars: compound 50 μM; 125I-NGF 1 nM; 2 h at 4° C.; value is mean of the three replicates. The procedure: as §1

For series [3] the following is noted: @ 100 μM DMSO.

T2 sequence (P01139 122-241): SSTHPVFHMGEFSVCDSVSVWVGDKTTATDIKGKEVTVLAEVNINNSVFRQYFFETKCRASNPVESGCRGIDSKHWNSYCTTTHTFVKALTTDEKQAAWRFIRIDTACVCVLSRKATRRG
T1 sequence (P01139 122-241): as above

As for `O=C(O)CCCCCN1C(=O)c2cccc3cc([N+](=O)[O-])cc(c23)C1=O` [Compound 204, N-(5-carboxypentyl)-3-nitro-1,8-naphthalimide; 2-(5-carboxypentyl)-5-nitrobenzo[d,e]isoquinoline-1,3-dione], the “PC12 % of Max (receptor binding in presence of competitor as percentage of binding in absence of competitor)” value in series [1] is listed as 41, 41, 36 = 39 % of Max. Besides, in series [2], the “nnr5 % of Max (receptor binding in presence of competitor as percentage of binding in absence of competitor)” value is given as 12, 0, 47 = 20 % of Max.
On to `O=C(O)CCCCCN1C(=O)c2cccc3c([N+](=O)[O-])ccc(c23)C1=O` [Compound 224, N-(5-carboxypentyl)-4-nitro-1,8-naphthalimide; 2-(5-carboxypentyl)-6-nitrobenzo[d,e]isoquinoline-1,3-dione], for which the “PC12 % of Max (receptor binding in presence of competitor as percentage of binding in absence of competitor)” value in series [1] is 31, 34, 22 = 29 % of Max. Moreover, in series [2], the “nnr5 % of Max (receptor binding in presence of competitor as percentage of binding in absence of competitor)” value was 36, 35, 39 = 36 % of Max.
Take `O=C(O)CCCN1C(=O)c2cccc3c([N+](=O)[O-])ccc(c23)C1=O` [Compound 222, N-(3-carboxypropyl)-4-nitro-1,8-naphthalimide; 2-(3-carboxypropyl)-6-nitrobenzo[d,e]isoquinoline-1,3-dione]: the Solubility in series [3] is recorded as 222 NS (NS: Not Soluble @ 100 μM DMSO).
In the case of `O=C(O)CCN1C(=O)c2cccc3c([N+](=O)[O-])ccc(c23)C1=O` [Compound 221, N-(2-carboxyethyl)-4-nitro-1,8-naphthalimide; 2-(2-carboxyethyl)-6-nitrobenzo[d,e]isoquinoline-1,3-dione], the “PC12 % of Max (receptor binding in presence of competitor as percentage of binding in absence of competitor)” value in series [1] is 29, 32, 31 = 31 % of Max. Moreover, the “nnr5 % of Max (receptor binding in presence of competitor as percentage of binding in absence of competitor)” value in series [2] is recorded as 41, 37, 42 = 40 % of Max.
`O=C(O)CN1C(=O)c2cccc3cc([N+](=O)[O-])cc(c23)C1=O` [Compound 200, N-(1-carboxymethyl)-3-nitro-1,8-naphthalimide; 2-(1-carboxymethyl)-5-nitrobenzo[d,e]isoquinoline-1,3-dione]: in series [1], the “PC12 % of Max (receptor binding in presence of competitor as percentage of binding in absence of competitor)” value is given as 92, 87, 74 = 84 % of Max. In series [2], the “nnr5 % of Max (receptor binding in presence of competitor as percentage of binding in absence of competitor)” value is on record as 58, 63, 64 = 62 % of Max.
Take `O=C(O)CCCCN1C(=O)c2cccc3c([N+](=O)[O-])ccc(c23)C1=O` [Compound 223, N-(4-carboxybutyl)-4-nitro-1,8-naphthalimide; 2-(4-carboxybutyl)-6-nitrobenzo[d,e]isoquinoline-1,3-dione]: in series [1], the “PC12 % of Max (receptor binding in presence of competitor as percentage of binding in absence of competitor)” value was 27, 33, 33 = 31 % of Max. The “nnr5 % of Max (receptor binding in presence of competitor as percentage of binding in absence of competitor)” value in series [2] is 40, 41, 47 = 43 % of Max.
`O=C(O)CCCCN1C(=O)c2cccc3cc([N+](=O)[O-])cc(c23)C1=O` [Compound 203, N-(4-carboxybutyl)-3-nitro-1,8-naphthalimide; 2-(4-carboxybutyl)-5-nitrobenzo[d,e]isoquinoline-1,3-dione]: the “PC12 % of Max (receptor binding in presence of competitor as percentage of binding in absence of competitor)” value in series [1] is recorded as 36, 41, 35 = 37 % of Max. In addition, the “nnr5 % of Max (receptor binding in presence of competitor as percentage of binding in absence of competitor)” value in series [2] is recorded as 33, 0, 18 = 17 % of Max.
On to `O=C(O)CCCN1C(=O)c2cccc3cc([N+](=O)[O-])cc(c23)C1=O` [Compound 202, N-(3-carboxypropyl)-3-nitro-1,8-naphthalimide; 2-(3-carboxypropyl)-5-nitrobenzo[d,e]isoquinoline-1,3-dione], for which the “PC12 % of Max (receptor binding in presence of competitor as percentage of binding in absence of competitor)” value in series [1] is 21, 22, 30 = 24 % of Max. In series [2], the “nnr5 % of Max (receptor binding in presence of competitor as percentage of binding in absence of competitor)” value is listed as 16, 0, 0 = 5 % of Max.
Turning to `O=C(O)CN1C(=O)c2cccc3c([N+](=O)[O-])ccc(c23)C1=O` [Compound 220, N-(1-carboxymethyl)-4-nitro-1,8-naphthalimide; 2-(1-carboxymethyl)-6-nitrobenzo[d,e]isoquinoline-1,3-dione], the “PC12 % of Max (receptor binding in presence of competitor as percentage of binding in absence of competitor)” value in series [1] was 37, 43, 49 = 43 % of Max. Besides, in series [2], the “nnr5 % of Max (receptor binding in presence of competitor as percentage of binding in absence of competitor)” value is 21, 17, 26 = 21 % of Max. In addition, in series [3], the Solubility is 220 NS (NS: Not Soluble @ 100 μM DMSO).
Consider `O=C(O)CCN1C(=O)c2cccc3cc([N+](=O)[O-])cc(c23)C1=O` [Compound 201, N-(2-carboxyethyl)-3-nitro-1,8-naphthalimide; 2-(2-carboxyethyl)-5-nitrobenzo[d,e]isoquinoline-1,3-dione], for which the “PC12 % of Max (receptor binding in presence of competitor as percentage of binding in absence of competitor)” value in series [1] was 27, 32, 41 = 33 % of Max. Moreover, in series [2], the “nnr5 % of Max (receptor binding in presence of competitor as percentage of binding in absence of competitor)” value was 30, 4, 34 = 23 % of Max.
